Measured values: US20020009713A1, “Methods for identifying modulators of neuronal growth” (priority 2000, published 2002)

Legend:
rat sympathetic neurons [1] = experiment: MTT survival assay of cultured sympathetic neurons; type: cell-based
Description: Neurons were plated at low density (approximately one ganglion/well) in Nunclon™ 4-well culture dishes (Gibco BRL, Burlington, Ontario, Canada), coated with either rat tail collagen or poly-D-lysine and laminin (both from Collaborative Biomedical Products, Bedford, Mass.). Culture medium was UltraCulture (BioWhittaker, Walkersville, Md.), supplemented with 3% rat serum (Harlan Bioproducts, Madison, Wis.), 2 mM glutamine, 100 U/ml penicillin, 100 μg/ml streptomycin (all from BioWhittaker), and for the first two days, 7 μM cytosine arabinoside (Sigma-Aldrich Canada Ltd., Oakville, Ontario, Canada).
(§1) NGF-dependent neurons were selected by culturing sympathetic neurons for five days in the presence of 50 ng/ml NGF. Neurons were washed three times for one hour each in neurotrophin-free media, and were then fed with media containing 10 ng/ml NGF alone, or various concentrations of NGF plus either 100 ng/ml BDNF, 10 μg/ml αBDNF, or a 1:100 dilution of antiserum containing the p75^NTR antibody, REX (Weskamp and Reichardt, Neuron 6: 649-663, 1991). Each condition was repeated in triplicate, and analysis of survival was performed 48 hours later by using nonradioactive cell proliferation (MTT) assays (Celltitre 96; Promega; Belliveau et al., J. Cell Biol. 136:375-388, 1997). Specifically, 50 μl of the MTT reagent was added to 500 μl media in each well, and incubated for two hours at 37° C. After aspiration of the MTT containing media, 100 μl of a 0.065N HCl/isopropanol mixture was added to each well to lyse the cells, and colorimetric analysis was performed using an ELISA reader. For rat sympathetic neurons, 10 ng/ml NGF represents 100% survival, therefore all other values were considered to be relative to 10 ng/ml NGF. For mouse neurons, 7.5 ng/ml NGF represents 100% survival, and was thus considered to be the 100% survival threshold for neuritogenesis experiments.

sympathetic neurons [2] = experiment: Quantitative dot-blot of MAP2 association with microtubules and microtubule stability; type: cell-based, rat; conditions: for amount of MAP2 bound to microtubules: two days
Description: FIG. 22 is a schematic illustration showing immuno-dot blot analysis of MAP2 association and tubulin dynamics in SCG neurons. […]
(§2) Microtubules were isolated from cultured sympathetic neurons, and the relative amount of MAP2 present per microgram tubulin was determined using quantitative dot-blot analysis. […] Depolarization enhances MAP2 levels and CamKII phosphorylation in sympathetic neurons. We performed western blot analysis of sympathetic neurons treated with 10 ng/ml NGF, 50 mM KCl, or NGF+KCl. Lysates containing equal amounts of protein were separated by SDS-PAGE, transferred to nitrocellulose, and then probed for MAP2, phosphorylated-CamKII, phosphorylated-ERKs, or total ERK protein. KCl increases the amount of MAP2 present in sympathetic neurons, and enhances CamKII phosphorylation.
(§3) Inhibition of either CamKII or MEK is sufficient to inhibit activitydependent dendrite formation. Immunocytochemical analysis for MAP2 on sympathetic neurons cultured in the presence of NGF+KCl with or without 10 um KN62, 75 um PD98059, 100 nM H-89 or 10 uM forskolin. […] In this study, microtubule stability was determined in sympathetic neurons maintained in NGF or NGF+KCl, and treated with selective pharmacological inhibitors.

sympathetic neurons [3] = experiment: Western blot / biochemical analysis of MAP2, phosphorylated-CamKII and phosphorylated-ERKs; type: cell-based, rat; conditions: for MAP2 levels: FIG. 27, NGF, KCl and kinase inhibitors
Description: as §2

sympathetic neurons [4] = experiment: Activity-dependent dendrite formation, MAP2 immunocytochemistry and image analysis; type: cell-based, rat; conditions: for activity-dependent dendrite formation (MAP2): NGF+KCl, 10 um KN62, 75 um PD98059
Description: Dendritic growth can be measured as follows. Ninty-six-well plates are coated for […] with rat tail collagen (prepared in a dilution of 1% glacial acetic acid). After one hour, excess collagen is aspirated and allow to dry completely. SCG neurons are dissected, triturated and plated. Cells may also be plated onto 8-well chamber slides. Cells are fed after about three days and, after about five days, are switched to either 50 mM KCl or 10 ng/ml NGF+50 mM KCl for about three additional days. Neurons are washed briefly with PBS and then fixed for 10 minutes with 4% formaldehyde in PBS (freshly prepared). Excess fixative is removed by 3×5 min washes with PBS. Cells are stained for one hour at room temperature with the following antibodies with 3×5 min PBS washes after each incubation: primary antibody—mouse monoclonal IgG1 anti high molecular weight MAP2 (clone AP20, from Sigma), secondary antibody—donkey anti mouse CY3, minimum cross to mouse and rabbit (Jackson Immunochemicals). Cell are mounted and at least three fields of view are captured using an upright fluorescence microscope using 530 excitation/580 emission filters. For each individual neuron in a given field (minimum 250 neurons total), the distance of MAP2 positive staining from the perimeter of the cell body is measured. These measurements are performed and tabulated using NIH image. The tabulated data are then expressed as a population histogram, binning all the measured lengths into 2 μm bins. This analysis gives an overall measure of the extent of dendritic differentiation in the population.
Neuronal depolarization causes dendrite formation in cultured sympathetic neurons, and NGF enhances this dendritogenesis. FIGS. 19A-19C, 20A, 20B show immunocytochemical analysis of sympathetic neurons cultured in the presence of NGF, switched to 10 ng/ml NGF, 50 mM KCl, or 10 ng/ml NGF+50 mM KCl for two days, and then stained for the dendrite-specific protein MAP2. FIGS. 20A and 20B are high magnification views of fields similar to those shown at lower-magnification in FIGS. 19A and 19C, respectively. The MAP2-immunoreactive processes show morphology characteristic of dendrites. The amount of dendritic formation could be readily quantified.
as §3

ERK, Akt, CamKII = experiment: Check of inhibitor selectivity for ERK, Akt and CamKII pathways; type: cell-based
rat sympathetic neurons [5] = experiment: In vitro neuritogenesis assay (neuritic process density); type: cell-based; conditions: 100 ng/ml BDNF in 10 ng/ml NGF, two days, six experiments
Description: Regulation of neuronal growth was analyzed by an in vitro neuritogenesis assay. Postnatal day one rat sympathetic neurons were cultured in 50 ng/ml NGF for two to three days in order to upregulate p75^NTR, whose increased expression in response to NGF occurs independently of neuronal survival. Following a one hour wash in neurotrophin-free medium, cultures were maintained for an additional two days in 10 ng/ml NGF plus or minus 100 ng/ml BDNF. Fields in sister cultures containing a similar number of neuronal cell bodies were then photographed, and neuritic process density was determined as described below. […]
Quantitative analysis was performed by using common statistics applied to random sets of lines and determining the number of intersection points per unit area. […] Low density fields were photographed, and the number of visible intersections and bifurcations of cell processes per unit area was considered to be a quantitative measure of process density. Since the number of neurites is a direct function of the number of neurons, however, the number of intersections and bifurcations counted per unit area was normalized to the number of cell bodies in that same area of interest. […] Results are expressed as the mean density plus or minus the standard error of the mean.

TrkB = experiment: BDNF neutralization: TrkB tyrosine phosphorylation in TrkB-expressing NIH-3T3 cells; type: cell-based; conditions: 50 ng/ml BDNF, five minutes
Description: To test the capacity of anti-BDNF to neutralize BDNF, TrkB-expressing NIH-3T3 cells were cultured in Dulbecco's modified Eagle medium. Briefly, cells were washed twice and incubated for one hour at 37° C. in buffer, followed by a 30 minute wash at 37° C. in a phosphate-free buffer. Treatment consisted of incubating cells for five minutes with either 50 ng/ml BDNF (Promega) or with BDNF preabsorbed for four hours at 4° C. with increasing concentrations of the BDNF antibody (5-40 μg/ml). In addition, TrkB-3T3 cells were treated with medium only, or medium plus 40 μg/ml nonimmune chicken IgY. Following these treatments, cells were lysed, immunoprecipitated with anti-pan Trk (Hempstead et al., Neuron 9:883-896, 1992), and the immunoprecipitates analyzed for TrkB activation by Western blot analysis with phosphotyrosine antibody 4G10 (Upstate Biotechnology Inc., Lake Placid, N.Y.).

[6] = system: mouse sympathetic neurons; experiment: MTT survival assay of mouse sympathetic neurons; type: cell-based
Description: CD-1 mouse sympathetic neurons were cultured by a modification of the method used to prepare rat neurons. Mouse cultures were essentially prepared the same way, but were dissociated in UltraCulture medium rather than Hanks' balanced saline solution. 3% fetal bovine serum (Gibco) was used instead of rat serum, and 3.5 μM cytosine arabinoside was added to the culture medium on day one post-plating.
as §1, with “Each condition was repeated in triplicate, and analysis of survival was performed 48 hours later by using nonradioactive cell proliferation (MTT) assays (Celltitre 96; Promega; Belliveau et al., J.” left out, “For mouse neurons, 7.5 ng/ml NGF represents 100% survival, and was thus considered to be the 100% survival threshold for neuritogenesis experiments.” left out

[7] = system: murine sympathetic neurons; experiment: Neuritogenesis assay in wild type and p75NTR-/- murine sympathetic neurons; type: cell-based, mouse; conditions: 7.5 ng/ml NGF plus 100 ng/ml BDNF
[8] = 10 ng/ml NGF added to 50 mM KCl

O=S(=O)(NCCNC/C=C/c1ccc(Br)cc1)c1cccc2cnccc12 [H-89]
survival of sympathetic neurons (MTT) (rat sympathetic neurons [1]; cultured in NGF or NGF+KCl): None of these compounds perturbs

[Cl-].[K+] [KCl]
amount of MAP2 bound to microtubules (sympathetic neurons [2]; 50 mM KCl): greatly enhances | CamKII phosphorylation (sympathetic neurons [3]; 50 mM KCl): enhances | amount of MAP2 present in sympathetic neurons (sympathetic neurons [3]; 50 mM KCl): increases

CN([C@@H](Cc1ccc(OS(=O)(=O)c2cccc3cnccc23)cc1)C(=O)N1CCN(c2ccccc2)CC1)S(=O)(=O)c1cccc2cnccc12 [KN-62]
survival of sympathetic neurons (MTT) (rat sympathetic neurons [1]; cultured in NGF or NGF+KCl): None of these compounds perturbs | survival of sympathetic neurons (MTT) (rat sympathetic neurons [1]; cultured only in 50 mM KCl): dramatically reduces | activity-dependent dendrite formation (MAP2) (sympathetic neurons [4]): completely abolished | KCl-induced increase in microtubule stability (sympathetic neurons [2]; neurons maintained in NGF or NGF+KCl): completely inhibit | MAP2 levels (sympathetic neurons [3]): reduce | ERK or Akt activation (ERK, Akt, CamKII): do not affect

COc1cccc(-c2cc(=O)c3ccccc3o2)c1N [PD98059]
activity-dependent dendrite formation (MAP2) (sympathetic neurons [4]): completely abolished | MAP2 levels (sympathetic neurons [3]): reduce | CamKII activity (ERK, Akt, CamKII): does not affect

B1: BDNF: brain-derived neurotrophic factor; recombinant human BDNF (protein, UniProt P23560 19-247, looked up)
Neurotrophic factor BDNF …: APMKEANIRGQGGLAYPGVRTHGTLESVNGPKAGSRGLTSLADTFEHVIEELLDEDQKVRPNEENNKDADLYTSRVMLSSQVPLEPPLLFLLEEYKNYLDAANMSMRVRRHSDPARRGELSVCDSISEWVTAADKKTAVDMSGGTVTVLEKVPVSKGQLKQYFYETKCNPMGYTKEGCRGIDKRHWNSQCRTTQSYVRALTMDSKKRIGWRFIRIDTSCVCTLTIKRGR
sympathetic neuron survival (MTT) (rat sympathetic neurons [1]; 100 ng/ml BDNF in 10 ng/ml NGF, two days): no effect | average decrease of process network density (rat sympathetic neurons [5]): 40% | tyrosine phosphorylation of TrkB (TrkB): robust increase | mouse sympathetic neuron survival (MTT) ([6]; 7.5 or 10 ng/ml NGF plus 100 ng/ml BDNF): did not affect | effect on growth ([7]; p75NTR-/- neurons): no effect | average decrease of neuronal growth ([7]; wild type mouse cultures): 35%

B2: NGF: nerve growth factor purified from mouse salivary glands (protein, UniProt P01139 122-241, looked up)
Beta-nerve growth factor: SSTHPVFHMGEFSVCDSVSVWVGDKTTATDIKGKEVTVLAEVNINNSVFRQYFFETKCRASNPVESGCRGIDSKHWNSYCTTTHTFVKALTTDEKQAAWRFIRIDTACVCVLSRKATRRG
mouse sympathetic neuron survival (MTT) ([6]; 5, 7.5 and 10 ng/ml NGF, three days): maximal | KCl-dependent dendritic growth (sympathetic neurons [4]; [8]): greatly enhances | dendritic growth (MAP2-positive dendrite length) (sympathetic neurons [4]; 10 ng/ml NGF on its own): little ability to cause dendritic growth | amount of MAP2 bound to microtubules (sympathetic neurons [2]; [8]): enhances this effect to some degree | ERK phosphorylation (sympathetic neurons [3]; 10 ng/ml NGF compared with 50 mM KCl): more potent stimulator
